Data reported in patent US6706663B2, “Herbicidal 3-heterocyclic substituted benzisothiazole and benzisoxazole compounds” (Wyeth, priority 2000, dated 2004).

Key:
[1] = system: TRZAWR (Wheat, Winter, cv Riband); assay: Postemergence herbicidal evaluation; type: in vivo, Triticum aestivum
How it was run: (§1)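 Seedlings grown about two weeks in flats, sprayed, then kept under standard greenhouse care. Rated visually 4–5 weeks after treatment on a 0–9 scale (stand, vigour, malformation, size, chlorosis, overall appearance) relative to untreated control; repeat tests averaged.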

ZEAMX (Corn, Field) = assay: Preemergence herbicidal evaluation; type: in vivo, Zea mays, L.; conditions: preemergence, rated 4-5 weeks after treatment
[2] = system: IPOHE (Ipomoea hederacea); assay: Postemergence herbicidal evaluation; type: in vivo, (L.) Jacq.
How it was run: as §1

[3] = system: ECHCG (Echinochloa crus-galli); assay: Preemergence herbicidal evaluation; type: in vivo, (L.) Beau; conditions: preemergence, rated 4-5 weeks after treatment
How it was run: (§2)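 Seeds planted in potting soil cups and sprayed preemergence with aqueous acetone compound solution. Greenhouse-grown; rated 4–5 weeks after treatment on a 0-9 visual scale (stand, vigor, malformation, size, chlorosis, appearance) versus control.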

SETVI (Setaria viridis) [4] = assay: Preemergence herbicidal evaluation; type: in vivo, (L.) Beau; conditions: preemergence, rated 4-5 weeks after treatment
How it was run: as §2

CYPIR (Cyperus iria) = assay: Flooded paddy, preemergence weed control; type: in vivo; conditions: rated 3-4 weeks after treatment, 0-9 rating scale
How it was run: (§3)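 Seeds or propagating organs were sown in the top 0.5 cm of silt loam soil, flooded, and the water kept 1.5 to 3 cm above the soil surface throughout. Plants were grown in the greenhouse and rated visually on a 0-9 scale against a control.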

[5] = system: ECHORC (Echinochloa oryzoides); assay: Flooded paddy, preemergence weed control; type: in vivo, Echinochloa oryzoides (Ard.) Fritsch.; conditions: rated 3-4 weeks after treatment, 0-9 rating scale
How it was run: as §3

[6] = system: MOOVA (Monochoria vaginalis); assay: Flooded paddy, preemergence weed control; type: in vivo, Presl.; conditions: rated 3-4 weeks after treatment, 0-9 rating scale
How it was run: as §3

[7] = system: GLXMAW (Soybean, Williams); assay: Preemergence herbicidal evaluation; type: in vivo, Glycine max, (L.) Merr. cv Williams; conditions: preemergence, rated 4-5 weeks after treatment
SETVI (Setaria viridis) [8] = assay: Postemergence herbicidal evaluation; type: in vivo, (L.) Beau
How it was run: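 ~2-wk seedlings; spray 0.0040–1.000 kg/ha in 50/50 acetone/water + 0.5% TWEEN 20, 40 psi nozzle. Greenhouse hold; visual 0–9 rating vs control at 4–5 wk; multiple tests averaged.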

With `CN(C(=O)c1nsc2ccc(-n3c(=O)cc(C(F)(F)F)n(C)c3=O)cc12)c1ccc(Cl)cc1` [Compound 18, 1,2-benzisothiazole-3-carboxanilide, 4′-chloro-5-[3,6-dihydro-3-methyl-2,6-dioxo-4-(trifluoromethyl)-1(2H)-pyrimidinyl]-N-methyl-] the “Postemergence herbicidal rating, TRZAWR” value ([1]; rate 0.0320 kg/ha) was 3.0, the “Postemergence herbicidal rating, TRZAWR” value ([1]; rate 0.0620 kg/ha) was 4.0 and the “Postemergence herbicidal rating, TRZAWR” value ([1]; rate 0.1250 kg/ha) was 5.0. For the same compound, the “Postemergence herbicidal rating, TRZAWR” value ([1]; rate 0.2500 kg/ha) was 6.0, the “ZEAMX preemergence herbicidal rating” value (ZEAMX (Corn, Field); Rate 0.0620 kg/ha) was 7.0 and the “ZEAMX preemergence herbicidal rating” value (ZEAMX (Corn, Field); Rate 0.1250 kg/ha) was 8.0. The “ZEAMX preemergence herbicidal rating” value (ZEAMX (Corn, Field); Rate 0.2500 kg/ha) was 8.0, the “Postemergence herbicidal rating, IPOHE” value ([2]; rate 0.0320 kg/ha) was 9.0 and the “Postemergence herbicidal rating, IPOHE” value ([2]; rate 0.0620 kg/ha) was 9.0. For the same compound, the “Postemergence herbicidal rating, IPOHE” value ([2]; rate 0.1250 kg/ha) was 9.0, the “Postemergence herbicidal rating, IPOHE” value ([2]; rate 0.2500 kg/ha) was 9.0 and the “ECHCG preemergence herbicidal rating” value ([3]; Rate 0.0620 kg/ha) was 0.0. The “ECHCG preemergence herbicidal rating” value ([3]; Rate 0.1250 kg/ha) was 2.0, the “ECHCG preemergence herbicidal rating” value ([3]; Rate 0.2500 kg/ha) was 9.0 and the “SETVI preemergence herbicidal rating” value (SETVI (Setaria viridis) [4]; Rate 0.0620 kg/ha) was 8.0. The “SETVI preemergence herbicidal rating” value (SETVI (Setaria viridis) [4]; Rate 0.1250 kg/ha) was 9.0, the “SETVI preemergence herbicidal rating” value (SETVI (Setaria viridis) [4]; Rate 0.2500 kg/ha) was 9.0 and the “herbicidal rating, CYPIR” value (CYPIR (Cyperus iria); rate 0.0080 kg/ha) was 0.0. For the same compound, the “herbicidal rating, CYPIR” value (CYPIR (Cyperus iria); rate 0.0320 kg/ha) was 6.5, the “herbicidal rating, CYPIR” value (CYPIR (Cyperus iria); rate 0.1250 kg/ha) was 7.5 and the “herbicidal rating, ECHORC” value ([5]; rate 0.0080 kg/ha) was 0.0. For the same compound, the “herbicidal rating, ECHORC” value ([5]; rate 0.0320 kg/ha) was 6.0, the “herbicidal rating, ECHORC” value ([5]; rate 0.1250 kg/ha) was 9.0 and the “herbicidal rating, MOOVA” value ([6]; rate 0.0080 kg/ha) was 0.0. The “herbicidal rating, MOOVA” value ([6]; rate 0.0320 kg/ha) was 9.0, the “herbicidal rating, MOOVA” value ([6]; rate 0.1250 kg/ha) was 9.0 and the “GLXMAW preemergence herbicidal rating” value ([7]; Rate 0.0620 kg/ha) was 0.0. For the same compound, the “GLXMAW preemergence herbicidal rating” value ([7]; Rate 0.1250 kg/ha) was 4.0, the “GLXMAW preemergence herbicidal rating” value ([7]; Rate 0.2500 kg/ha) was 5.0 and the “Postemergence herbicidal rating, SETVI” value (SETVI (Setaria viridis) [8]; rate 0.0320 kg/ha) was 0.0. The “Postemergence herbicidal rating, SETVI” value (SETVI (Setaria viridis) [8]; rate 0.0620 kg/ha) was 0.0, the “Postemergence herbicidal rating, SETVI” value (SETVI (Setaria viridis) [8]; rate 0.1250 kg/ha) was 5.0 and the “Postemergence herbicidal rating, SETVI” value (SETVI (Setaria viridis) [8]; rate 0.2500 kg/ha) was 9.0.

With `Cc1cccnc1-c1nsc2ccc(-n3c(=O)cc(C(F)(F)F)n(C)c3=O)cc12` [Compound 19, 1-methyl-3-[3-(3-methyl-2-pyridyl)-1,2-benzisothiazol-5-yl]-6-(trifluoromethyl)uracil] the “Postemergence herbicidal rating, TRZAWR” value ([1]; rate 0.0320 kg/ha) was 4.0, the “Postemergence herbicidal rating, TRZAWR” value ([1]; rate 0.0620 kg/ha) was 4.3 and the “ZEAMX preemergence herbicidal rating” value (ZEAMX (Corn, Field); Rate 0.0620 kg/ha) was 7.0. For the same compound, the “ZEAMX preemergence herbicidal rating” value (ZEAMX (Corn, Field); Rate 0.1250 kg/ha) was 7.0, the “ZEAMX preemergence herbicidal rating” value (ZEAMX (Corn, Field); Rate 0.2500 kg/ha) was 7.7 and the “Postemergence herbicidal rating, IPOHE” value ([2]; rate 0.0320 kg/ha) was 8.0. The “Postemergence herbicidal rating, IPOHE” value ([2]; rate 0.0620 kg/ha) was 9.0, the “ECHCG preemergence herbicidal rating” value ([3]; Rate 0.0620 kg/ha) was 9.0 and the “ECHCG preemergence herbicidal rating” value ([3]; Rate 0.1250 kg/ha) was 9.0. The “ECHCG preemergence herbicidal rating” value ([3]; Rate 0.2500 kg/ha) was 9.0, the “SETVI preemergence herbicidal rating” value (SETVI (Setaria viridis) [4]; Rate 0.0620 kg/ha) was 9.0 and the “SETVI preemergence herbicidal rating” value (SETVI (Setaria viridis) [4]; Rate 0.1250 kg/ha) was 9.0. For the same compound, the “SETVI preemergence herbicidal rating” value (SETVI (Setaria viridis) [4]; Rate 0.2500 kg/ha) was 9.0, the “herbicidal rating, CYPIR” value (CYPIR (Cyperus iria); rate 0.0080 kg/ha) was 0.0 and the “herbicidal rating, CYPIR” value (CYPIR (Cyperus iria); rate 0.0320 kg/ha) was 5.0. The “herbicidal rating, CYPIR” value (CYPIR (Cyperus iria); rate 0.1250 kg/ha) was 9.0, the “herbicidal rating, ECHORC” value ([5]; rate 0.0080 kg/ha) was 2.0 and the “herbicidal rating, ECHORC” value ([5]; rate 0.0320 kg/ha) was 8.0. The “herbicidal rating, ECHORC” value ([5]; rate 0.1250 kg/ha) was 9.0, the “herbicidal rating, MOOVA” value ([6]; rate 0.0080 kg/ha) was 4.0 and the “herbicidal rating, MOOVA” value ([6]; rate 0.0320 kg/ha) was 9.0. The “herbicidal rating, MOOVA” value ([6]; rate 0.1250 kg/ha) was 9.0, the “GLXMAW preemergence herbicidal rating” value ([7]; Rate 0.0620 kg/ha) was 6.3 and the “GLXMAW preemergence herbicidal rating” value ([7]; Rate 0.1250 kg/ha) was 6.7. The “GLXMAW preemergence herbicidal rating” value ([7]; Rate 0.2500 kg/ha) was 7.7, the “Postemergence herbicidal rating, SETVI” value (SETVI (Setaria viridis) [8]; rate 0.0320 kg/ha) was 4.0 and the “Postemergence herbicidal rating, SETVI” value (SETVI (Setaria viridis) [8]; rate 0.0620 kg/ha) was 6.5.

For `Cc1ccc(-c2nsc3ccc(N4C(=O)C5=C(CCCC5)C4=O)cc23)s1` [Compound 20, N-[3-(5-methyl-2-thienyl)-1,2-benzisothiazol-5-yl]-1-cyclohexene-1,2-dicarboximide], the “Postemergence herbicidal rating, TRZAWR” value ([1]; rate 0.0320 kg/ha) was 3.5, the “Postemergence herbicidal rating, TRZAWR” value ([1]; rate 0.0620 kg/ha) was 4.0 and the “Postemergence herbicidal rating, TRZAWR” value ([1]; rate 0.1250 kg/ha) was 4.5. The “ZEAMX preemergence herbicidal rating” value (ZEAMX (Corn, Field); Rate 0.0620 kg/ha) was 0.0, the “ZEAMX preemergence herbicidal rating” value (ZEAMX (Corn, Field); Rate 0.1250 kg/ha) was 0.0 and the “ZEAMX preemergence herbicidal rating” value (ZEAMX (Corn, Field); Rate 0.2500 kg/ha) was 0.0. The “Postemergence herbicidal rating, IPOHE” value ([2]; rate 0.0320 kg/ha) was 6.0, the “Postemergence herbicidal rating, IPOHE” value ([2]; rate 0.0620 kg/ha) was 9.0 and the “Postemergence herbicidal rating, IPOHE” value ([2]; rate 0.1250 kg/ha) was 9.0. For the same compound, the “ECHCG preemergence herbicidal rating” value ([3]; Rate 0.0620 kg/ha) was 0.0, the “ECHCG preemergence herbicidal rating” value ([3]; Rate 0.1250 kg/ha) was 0.0 and the “ECHCG preemergence herbicidal rating” value ([3]; Rate 0.2500 kg/ha) was 0.0. For the same compound, the “SETVI preemergence herbicidal rating” value (SETVI (Setaria viridis) [4]; Rate 0.0620 kg/ha) was 0.0, the “SETVI preemergence herbicidal rating” value (SETVI (Setaria viridis) [4]; Rate 0.1250 kg/ha) was 0.0 and the “SETVI preemergence herbicidal rating” value (SETVI (Setaria viridis) [4]; Rate 0.2500 kg/ha) was 0.0. For the same compound, the “herbicidal rating, CYPIR” value (CYPIR (Cyperus iria); rate 0.0320 kg/ha) was 2.0, the “herbicidal rating, CYPIR” value (CYPIR (Cyperus iria); rate 0.1250 kg/ha) was 3.0 and the “herbicidal rating, ECHORC” value ([5]; rate 0.0320 kg/ha) was 5.0. The “herbicidal rating, ECHORC” value ([5]; rate 0.1250 kg/ha) was 7.0, the “herbicidal rating, MOOVA” value ([6]; rate 0.0320 kg/ha) was 9.0 and the “herbicidal rating, MOOVA” value ([6]; rate 0.1250 kg/ha) was 9.0. The “GLXMAW preemergence herbicidal rating” value ([7]; Rate 0.0620 kg/ha) was 0.0, the “GLXMAW preemergence herbicidal rating” value ([7]; Rate 0.1250 kg/ha) was 0.0 and the “GLXMAW preemergence herbicidal rating” value ([7]; Rate 0.2500 kg/ha) was 0.0. The “Postemergence herbicidal rating, SETVI” value (SETVI (Setaria viridis) [8]; rate 0.0320 kg/ha) was 2.0, the “Postemergence herbicidal rating, SETVI” value (SETVI (Setaria viridis) [8]; rate 0.0620 kg/ha) was 2.0 and the “Postemergence herbicidal rating, SETVI” value (SETVI (Setaria viridis) [8]; rate 0.1250 kg/ha) was 2.0.
